According to patent publication US10208078B1 (SHAANXI UNIVERSITY OF SCIENCE AND TECHNOLOGY, priority 2018, dated 2019):

Assay: DPPH radical scavenging activity assay
Format: biochemical
Set-up: Scavenging activity (%): unit of the concentration uncertain
Settings: for Scavenging activity (%): 0.2 mmol/L DPPH, 30 minutes room temperature in dark, absorbance at 517 nm
Excerpt: 2,2-Diphenyl-1-picryl hydrazyl (DPPH) is an organic compound composed of a stable organic radical. In the DPPH molecule, due to the presence of multiple electron-withdrawing —NO2 and large π bonds of the benzene ring, nitrogen free radical is stabilized. Its methanol solution is purple and has a maximum absorption peak at 517 nm. After the addition of an antioxidant, DPPH captures an electron to be paired with the free electron, and the purple fades and turns into a yellow substance. The absorption at 517 nm disappears, and the degree of fading is quantitatively related to the number of electrons it captures. Based on this principle, a spectrophotometer is used to detect the change of the absorbance of the DPPH radical and the sample solution, and the ability of the sample to provide hydrogen atoms and scavenge free radicals can be measured.
Preparation of DPPH solution: measuring exact amount of 2,2-diphenyl-1-picryl hydrazyl (DPPH) and dissolving in methanol to prepare a 0.2 mmol/L DPPH solution, stored at 0° C. in dark.
Measuring the scavenging activity of the sample solutions:
2 mL of the sample solutions at each concentration gradient was taken, 2 mL 0.2 mmol/L DPPH solution was added, the mixture was mixed and reacted at room temperature in dark for 30 minutes, and methanol was then added to adjust final volume. The absorbance Ai was measured at 517 nm. 2 mL control solution and 2 mL methanol were mixed, and the absorbance Aj was measured. 2 mL DPPH solution and 2 mL methanol were mixed, and the absorbance A0 was measured. The scavenging activity of the sample solution and control solutions is calculated according to the following calculation formula. Scavenging activity (%)=100×[1−(Ai−Aj)/A0]
In FIG. 1, the X axis represents the concentrations (PPM) of the sample and control solutions, and the Y axis represents the scavenging activity.

[1] = concentration 6.89 (unit uncertain)
[2] = concentration 68.9 (unit uncertain)
[3] = concentration 172 (unit uncertain)
[4] = concentration 689 (unit uncertain)
[5] = concentration 1724 (unit uncertain)
[6] = concentration 6890 (unit uncertain)
[7] = concentration 8620 (unit uncertain)

Row | Compound | free radical clearance rate (achieved at a lower concentration than aesculin, thiodipropionic acid and their mixture) | Scavenging activity (%) [1] [%] | Scavenging activity (%) [2] [%] | Scavenging activity (%) [3] [%] | Scavenging activity (%) [4] [%] | Scavenging activity (%) [5] [%] | Scavenging activity (%) [6] [%] | Scavenging activity (%) [7] [%]
1 | O=C(CCSCCC(=O)OCC1OC(Oc2cc3ccc(=O)oc3cc2O)C(O)C(O)C1O)OCC1OC(Oc2cc3ccc(=O)oc3cc2O)C(O)C(O)C1O (stereo not shown) [Aesculin thiodipropionic acid ester, aesculin thiodipropionic acid ester] | more than 90% | 7.60 | 37.08 | 58.91 | 77.78 | 90.95 | 94.83 | 96.12
2 | O=C(O)CCSCCC(=O)O [Thiodipropionic acid, 3,3′-thiodipropionic acid] |  | 1.13 | 3.84 | 4.64 | 5.20 | 5.43 | 6.33 | 6.57
3 | O=C1O[C@H]([C@@H](O)CO)C(O)=C1O [Vitamin C, vitamin C] |  | 53.40 | 96.15 | 96.28 | 96.79 | 96.79 | 97.18 | 97.43
